What was measured:
Type in all cases: functional
[1] = test system: Escherichia coli; assay: Antimicrobial activity against CTX-M ESBL producing isolate of Escherichia coli at 30 ug by double-disk diffusion method; details: read-out: DIZ
[2] = test system: Klebsiella pneumoniae; assay: Antimicrobial activity against CTX-M ESBL producing isolate of Klebsiella pneumoniae at 30 ug by double-disk diffusion method; details: read-out: DIZ
[3] = test system: Klebsiella oxytoca; assay: Antimicrobial activity against CTX-M ESBL producing isolate of Klebsiella oxytoca at 30 ug by double-disk diffusion method; details: read-out: DIZ
[4] = test system: Escherichia coli; assay: Antimicrobial activity against non-CTX-M ESBL producing isolate of Escherichia coli by double-disk diffusion method

CO/N=C(\C(=O)N[C@@H]1C(=O)N2C(C(=O)O)=C(COC(C)=O)CS[C@H]12)c1csc(N)n1 [CEFOTAXIME]
zone of inhibition at 30 µg/disc [1]: 8.8 mm | zone of inhibition at 30 µg/disc [2]: 10.8 mm | zone of inhibition at 30 µg/disc [3]: 16.8 mm | diameter of the inhibition zone (DIZ) [4]: 21 mm

CC(C)(O/N=C(\C(=O)N[C@@H]1C(=O)N2C(C(=O)[O-])=C(C[n+]3ccccc3)CS[C@H]12)c1csc(N)n1)C(=O)O [CEFTAZIDIME]
zone of inhibition at 30 µg/disc [1]: 15.9 mm | zone of inhibition at 30 µg/disc [2]: 9.8 mm | zone of inhibition at 30 µg/disc [3]: 9.2 mm | diameter of the inhibition zone (DIZ) [4]: 17.3 mm

Source: ChEMBL document CHEMBL1137653, “First report of the emergence of CTX-M-type extended-spectrum beta-lactamases (ESBLs) as the predominant ESBL isolated in a U.S. health care system” (2007)
